ChEMBL document CHEMBL4680162, “Synthesis and pharmacological evaluation of chlorin derivatives for photodynamic therapy of cholangiocarcinoma” (Eur J Med Chem, 2020)
Active and inactive are the calls of the source. The rule behind the calls is not given here.

Experiments:
[1] = Dark toxicity in human QBC939 cells assessed as reduction in cell viability incubated under dark for 24 hrs measured after 24 hrs by MTT assay; type: cell-based; conditions: read-out: TC50
[2] = Phototoxicity against human QBC939 cells assessed as reduction in cell viability irradiated with 1 J/cm2 of 650 nanometer laser light preincubated for 24 hrs in dark and measured after 24 hrs by MTT assay; type: functional, cell-based; conditions: QBC939, light or radiation study
[3] = Phototoxicity against human QBC939 cells assessed as reduction in cell viability irradiated with 2 J/cm2 of 650 nanometer laser light preincubated for 24 hrs in dark and measured after 24 hrs by MTT assay; type: functional, cell-based; conditions: QBC939, light or radiation study
[4] = Phototoxicity against human QBC939 cells assessed as reduction in cell viability irradiated with 4 J/cm2 of 650 nanometer laser light preincubated for 24 hrs in dark and measured after 24 hrs by MTT assay; type: functional, cell-based; conditions: QBC939, light or radiation study
[5] = Phototoxicity in ICR mouse assessed as neck skin weight at 1 mg/kg, iv followed by 10 mW/cm2 light irradiation for 10 mins at 1 day after drug challenge and measured after 1 day of light irradiation by H and E staining based microscopic analysis (reference value: 36.5 +/- 2.4 mg); type: organism-based; conditions: in vivo, 48 h, time 2 day
[6] = Phototoxicity in ICR mouse assessed as skin erythema at 1 mg/kg, iv followed by 10 mW/cm2 light irradiation for 10 mins at 1 day after drug challenge and measured after 1 day of light irradiation by H and E staining based microscopic analysis; type: organism-based; conditions: in vivo, 48 h, time 2 day
[7] = Phototoxicity in ICR mouse assessed as ear swelling at 1 mg/kg, iv followed by 10 mW/cm2 light irradiation for 10 mins at 1 day after drug challenge and measured after 1 day of light irradiation by H and E staining based microscopic analysis; type: organism-based; conditions: in vivo, 48 h, time 2 day
[8] = Phototoxicity in ICR mouse assessed as skin swelling at 1 mg/kg, iv followed by 10 mW/cm2 light irradiation for 10 mins at 1 day after drug challenge and measured after 1 day of light irradiation by H and E staining based microscopic analysis; type: organism-based; conditions: in vivo, 48 h, time 2 day
[9] = Phototoxicity in ICR mouse assessed as ear weight at 1 mg/kg, iv followed by 10 mW/cm2 light irradiation for 10 mins at 1 day after drug challenge and measured after 1 day of light irradiation by H and E staining based microscopic analysis (reference value: 12.4 +/- 1.5 mg); type: organism-based; conditions: in vivo, 48 h, time 2 day
[10] = Phototoxicity in ICR mouse assessed as back skin weight at 1 mg/kg, iv followed by 10 mW/cm2 light irradiation for 10 mins at 1 day after drug challenge and measured after 1 day of light irradiation by H and E staining based microscopic analysis (reference value: 34.3 +/- 2.1 mg); type: organism-based; conditions: in vivo, 48 h, time 2 day
[11] = Phototoxicity in ICR mouse assessed as tail weight at 1 mg/kg, iv followed by 10 mW/cm2 light irradiation for 10 mins at 1 day after drug challenge and measured after 1 day of light irradiation by H and E staining based microscopic analysis (reference value: 115.6 +/- 5.6 mg); type: organism-based; conditions: in vivo, 48 h, time 2 day
[12] = Phototoxicity in ICR mouse assessed as dermal inflammation 1 mg/kg, iv in presence of 10 mW/cm2 light irradiation for 10 mins at 1 day after drug challenge and measured after 1 day of light irradiation by H and E staining based microscopic analysis; type: organism-based; conditions: in vivo, 48 h, time 2 day
[13] = Photodynamic antitumor activity against human QBC939 cells xenografted in BALB/c nude mouse assessed as tumor weight at 1 mg/kg, iv followed by laser light irradiation at 120 J/cm2 measured after 13 days; type: functional; conditions: time 13 day
QBC939 [14] = assay: Photodynamic antitumor activity against human QBC939 cells xenografted in BALB/c nude mouse assessed as decrease in tumor weight at 1 mg/kg, iv under dark condition measured after 13 days; type: functional, organism-based; conditions: time 13.0 day
QBC939 [15] = assay: Photodynamic antitumour activity against human QBC939 cells xenografted in BABL/c nude mouse assessed as increase in apoptotic cells at 1 mg/kg, iv measured after 1 day of light irradiation by TUNEL assay; type: functional, organism-based
[16] = Absorption property of compound in poly-oxyethylene castor oil and PBS assessed as Q band maximum absorption wavelength by UV-visible spectrophotometric method; type: physicochemical; conditions: buffer
[17] = Absorption property of the compound in DMSO assessed as Q band maximum absorption wavelength by UV-visible spectrophotometric method; type: physicochemical
[18] = Absorption property of the compound in DMF assessed as Q band maximum absorption wavelength by UV-visible spectrophotometric method; type: physicochemical
[19] = Absorption property of compound in poly-oxyethylene castor oil and PBS assessed as Q band log absorption coefficient by UV-visible spectrophotometric method; type: physicochemical; conditions: buffer
[20] = Absorption property of the compound in DMSO assessed as Q band log absorption coefficient by UV-visible spectrophotometric method; type: physicochemical
[21] = Absorption property of the compound in DMF assessed as Q band log absorption coefficient by UV-visible spectrophotometric method; type: physicochemical
[22] = Emission property of compound in poly-oxyethylene castor oil and PBS assessed as Q band emission wavelength by […]; type: physicochemical; conditions: buffer
[23] = Emission property of compound in DMSO assessed as Q band emission wavelength by […]; type: physicochemical
[24] = Emission property of compound in DMF assessed as Q band emission wavelength by […]; type: physicochemical
[25] = Induction of singlet oxygen generation in DMF solution irradiated with 650 nanometer laser light in every 1 min by ESR assay; type: functional
[26] = Induction of singlet oxygen generation in DMSO assessed as bleaching rate at 10 uM under 650 nanometer light irradiation; type: functional
[27] = Drug uptake in human QBC939 cells at 4 uM by fluorescence spectrophotometer analysis; type: ADME, cell-based; conditions: qbc939, 4 µM
[28] = Drug localization in mitochondria of human QBC939 cells at 4 uM incubated for 4 hrs in dark by mito-tracker green based confocal microscopic method; type: ADME; conditions: qbc939, 4 h
[29] = Drug localization in lysosome of human QBC939 cells at 4 uM incubated for 4 hrs in dark by lyso-tracker blue based confocal microscopic method; type: ADME, subcellular; conditions: qbc939, 4 h
[30] = Drug localization in nucleus of human QBC939 cells at 4 uM incubated for 4 hrs in dark by Hoechst 33342 based confocal microscopic method; type: ADME, subcellular; conditions: qbc939, 4 h
[31] = Induction of apoptosis in human QBC939 cells assessed as necrotic cells at 2 uM by annexin V-FITC and propidium iodide staining based flow cytometric analysis; type: functional
[32] = Induction of apoptosis in human QBC939 cells assessed as late apoptotic cells at 2 uM by annexin V-FITC and propidium iodide staining based flow cytometric analysis; type: functional
[33] = Induction of apoptosis in human QBC939 cells assessed as early apoptotic cells at 2 uM by annexin V-FITC and propidium iodide staining based flow cytometric analysis (reference value: 0.01 %); type: functional
[34] = Induction of apoptosis in human QBC939 cells assessed as viable cells at 2 uM by annexin V-FITC and propidium iodide staining based flow cytometric analysis (reference value: 99.99 %); type: functional; conditions: read-out: Activity
[35] = Induction of apoptosis in human QBC939 cells assessed as necrotic cells at 2 uM in presence of 2J/cm2 light irradiation measured after 24 hrs by annexin V-FITC and propidium iodide staining based flow cytometric analysis (reference value: 0.02 %); type: functional
[36] = Induction of apoptosis in human QBC939 cells assessed as late apoptotic cells at 2 uM in presence of 2J/cm2 light irradiation measured after 24 hrs by annexin V-FITC and propidium iodide staining based flow cytometric analysis (reference value: 0.01 %); type: functional
[37] = Induction of apoptosis in human QBC939 cells assessed as early apoptotic cells at 2 uM in presence of 2J/cm2 light irradiation measured after 24 hrs by annexin V-FITC and propidium iodide staining based flow cytometric analysis (reference value: 0.01 %); type: functional
[38] = Induction of apoptosis in human QBC939 cells assessed as viable cells at 2 uM in presence of 2J/cm2 light irradiation measured after 24 hrs by annexin V-FITC and propidium iodide staining based flow cytometric analysis (reference value: 99.6 %); type: functional; conditions: QBC939, light or radiation study, read-out: Activity
[39] = Induction of apoptosis in human QBC939 cells assessed as necrotic cells at 2 uM in presence of 2J/cm2 light irradiation measured after 2 hrs by annexin V-FITC and propidium iodide staining based flow cytometric analysis (reference value: 0.02 %); type: functional
[40] = Induction of apoptosis in human QBC939 cells assessed as late apoptotic cells at 2 uM in presence of 2J/cm2 light irradiation measured after 2 hrs by annexin V-FITC and propidium iodide staining based flow cytometric analysis (reference value: 0.01 %); type: functional
[41] = Induction of apoptosis in human QBC939 cells assessed as early apoptotic cells at 2 uM in presence of 2J/cm2 light irradiation measured after 2 hrs by annexin V-FITC and propidium iodide staining based flow cytometric analysis (reference value: 0.01 %); type: functional
[42] = Induction of apoptosis in human QBC939 cells assessed as viable cells at 2 uM in presence of 2J/cm2 light irradiation measured after 2 hrs by annexin V-FITC and propidium iodide staining based flow cytometric analysis (reference value: 99.6 %); type: functional; conditions: QBC939, light or radiation study, read-out: Activity
[43] = Drug uptake in mouse assessed as drug level in plasma at 1 mg/kg, iv measured upto 24 hrs by fluorometric method; type: ADME, organism-based; conditions: in vivo
[44] = Drug uptake in nude mouse xenografted with QBC939 cells assessed as drug level in tumor tissue at 1 mg/kg, iv measured after 8 hrs by fluorescence imaging assay; type: ADME, organism-based, Neoplasm; conditions: in vivo
[45] = Drug uptake in nude mouse xenografted with QBC939 cells assessed as drug level in tumor tissue at 1 mg/kg, iv measured after 24 hrs by fluorescence imaging assay; type: ADME, organism-based, Neoplasm; conditions: in vivo
[46] = Phototoxicity in ICR mouse assessed as pathological changes 1 mg/kg, iv in presence of 10 mW/cm2 light irradiation for 10 mins at 1 day after drug challenge and measured after 1 day of light irradiation by H and E staining based microscopic analysis; type: organism-based; conditions: in vivo, 48 h, time 2 day

Oc1cccc(-c2c3nc(c(-c4cccc(O)c4)c4ccc([nH]4)c(-c4cccc(O)c4)c4nc(c(-c5cccc(O)c5)c5ccc2[nH]5)CC4)C=C3)c1 [TEMOPORFIN]
CC50 at 48 h [1]: 6.08 µM
IC50 [2]: 2.96 µM
IC50 [3]: 1.46 µM
IC50 [4]: 0.63 µM
Activity [5]: 42.7 mg
Activity [6]: Toxic
Activity [7]: Toxic
Activity [8]: Toxic
Activity [9]: 15.6 mg
Activity [10]: 39.2 mg
Activity [11]: 120.4 mg
Activity [12]: Toxic
Activity [13]: 35%
Activity (QBC939 [14]): inactive
Activity (QBC939 [15]): Active

COC(=O)C1(C(=O)NCCO)C2c3nc(c(-c4ccccc4)c4ccc([nH]4)c(-c4ccccc4)c4nc(c(-c5ccccc5)c5ccc([nH]5)c3-c3ccccc3)C=C4)C21 (configuration not stated)
Activity [16]: 650 nm
Activity [17]: 654 nm
Activity [18]: 652 nm
Activity [19]: 3.34
Activity [20]: 4
Activity [21]: 4.03
Activity [22]: 655 nm
Activity [23]: 650 nm
Activity [24]: 652 nm
Activity [25]: Active
Activity [26]: Active
Drug uptake [27]: Active
Drug uptake [28]: Active
Drug uptake [29]: Active
Drug uptake [30]: Not Active
CC50 at 48 h [1]: > 8 µM
IC50 [2]: 3.41 µM
Activity [31]: 0.96%
Activity [32]: 2.32%
Activity [33]: 1.65%
viability at 2 µM [34]: 95.1%
Activity [35]: 9.7%
Activity [36]: 44.9%
Activity [37]: 19.8%
viability at 2 µM [38]: 25.6%
Activity [39]: 17.07%
Activity [40]: 4.9%
Activity [41]: 2.1%
viability at 2 µM [42]: 75.9%
IC50 [3]: 1.92 µM
IC50 [4]: 1.17 µM
Drug uptake [43]: Active
Drug uptake [44]: Active
Drug uptake [45]: Active
Activity [5]: 38.1 mg
Activity [9]: 13.2 mg
Activity [10]: 35.3 mg
Activity [11]: 114.9 mg
Activity [46]: Non-Toxic
Activity [13]: 17%
Activity (QBC939 [14]): inactive
Activity (QBC939 [15]): Active
